Results published in patent publication US9102648B1, “Bioavailable diacylhydrazine ligands for modulating the expression of exogenous genes via an ecdysone receptor complex” (Intrexon Corporation, priority 2003, dated 2015).
pEC50: −log10 of the molar value.

How the values were obtained:
[1] = molecular target: T1, Bombyx mori EcR (VP16 fusion, CVBE switch construct) (Bombyx mori, UniProt P49881); assay: Z3 Assay (HEK-293 cells with CVBE and 6XEcRE LacZ, β-galactosidase reporter); conditions: for Fold Induction, Z3 Assay, 3.3 uM: 3.3 uM ligand; for Fold Induction, Z3 Assay, 3.3 uM / Fold Induction, Z3 Assay, 33 uM: ligand treated / DMSO treated cells; for Fold Induction, Z3 Assay, 3.3 uM / Fold Induction, Z3 Assay, 33 uM / pEC50: average of two wells; for Fold Induction, Z3 Assay, 33 uM: 33 uM ligand; for Z3 assay Rel Max FI: maximum fold induction at any concentration relative to that of GS-E ligand; for Z3 assay Rel Max FI / pEC50: HEK-293 Z3 cells; for pEC50: read-out: Z3 assay EC50, β-galactosidase reporter
T1 sequence (P49881 86-606): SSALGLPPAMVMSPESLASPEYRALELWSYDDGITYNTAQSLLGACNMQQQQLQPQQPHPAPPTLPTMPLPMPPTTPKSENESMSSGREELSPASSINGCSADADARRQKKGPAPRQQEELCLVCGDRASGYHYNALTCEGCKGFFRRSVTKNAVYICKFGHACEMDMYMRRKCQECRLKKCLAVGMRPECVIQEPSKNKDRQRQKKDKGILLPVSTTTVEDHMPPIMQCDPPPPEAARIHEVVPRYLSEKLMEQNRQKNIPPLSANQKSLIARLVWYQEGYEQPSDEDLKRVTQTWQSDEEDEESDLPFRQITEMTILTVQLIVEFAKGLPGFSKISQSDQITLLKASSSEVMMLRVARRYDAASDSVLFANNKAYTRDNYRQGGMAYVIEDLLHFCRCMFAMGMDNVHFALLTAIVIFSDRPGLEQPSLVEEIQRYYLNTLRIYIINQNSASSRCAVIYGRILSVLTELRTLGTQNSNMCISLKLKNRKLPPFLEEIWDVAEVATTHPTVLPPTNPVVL
T1 sequence (P19793 1-462 partner): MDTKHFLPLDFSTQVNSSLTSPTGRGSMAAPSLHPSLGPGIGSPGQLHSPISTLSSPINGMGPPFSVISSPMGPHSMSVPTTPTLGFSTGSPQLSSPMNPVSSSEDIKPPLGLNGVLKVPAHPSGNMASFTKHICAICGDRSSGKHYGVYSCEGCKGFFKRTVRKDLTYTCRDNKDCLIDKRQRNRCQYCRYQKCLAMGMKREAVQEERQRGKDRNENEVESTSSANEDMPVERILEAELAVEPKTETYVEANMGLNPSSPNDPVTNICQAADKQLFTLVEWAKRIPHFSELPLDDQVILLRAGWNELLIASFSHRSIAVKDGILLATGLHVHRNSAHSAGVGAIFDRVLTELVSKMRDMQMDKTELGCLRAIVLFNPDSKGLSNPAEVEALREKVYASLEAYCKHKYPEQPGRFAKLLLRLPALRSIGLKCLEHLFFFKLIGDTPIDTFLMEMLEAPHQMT
From the text: Dr. F. Gage provided a population of stably transformed cells containing CVBE and 6XEcRE as described in Suhr, S. T., Gil, E. B., Senut M. C., Gage, F. H. (1998) Proc. Natl. Acad. Sci. USA 95, 7999-804. Human 293 kidney cells, also referred to as HEK-293 cells, were sequentially infected with retroviral vectors encoding first the switch construct CVBE, and subsequently the reporter construct 6XEcRE Lac Z. The switch construct contained the coding sequence for amino acids 26-546 from Bombyx mori EcR (BE) (Iatrou) inserted in frame and downstream of the VP16 transactivation domain (VBE). A synthetic ATG start codon was placed under the control of cytomegalovirus (CVBE) immediate early promoter and flanked by long terminal repeats (LTR). The reporter construct contained six copies of the ecdysone response element (EcRE) binding site placed upstream of LacZ and flanked on both sides with LTR sequences (6XEcRE).
Dilution cloning was used to isolate individual clones. Clones were selected using 450 ug/mL G418 and 100 ng/mL puromycin. Individual clones were evaluated based on their response in the presence and absence of test ligands.
Human 293 kidney cells stably transformed with CVBE and 6XEcRE LacZ were maintained in Minimum Essential Medium (Mediates, 10-010-CV) containing 10% FBS (Life Technologies, 26140-087), […] G418 (Mediates, 30-234-CR), and […] (Sigma, P-7255), at 37° C. in an atmosphere containing 5% CO2 and were subculture when they reached 75% confluence.
Z3 cells were seeded into 96-well tissue culture plates at a concentration of 2.5×10^3 cells per well and incubated at 37° C. in 5% CO2 for twenty-four hours. Stock solutions of ligands were prepared in DMSO. Ligand stock solutions were diluted 100 fold in media and 50 μL of this diluted ligand solution ([…]) was added to cells. The final concentration of DMSO was maintained at 0.03% in both controls and treatments.
Reporter gene expression was evaluated 48 hours after treatment of cells, β-galactosidase activity was measured using Gal Screen™ bioluminescent reporter gene assay system from Tropix (GSY1000). Fold induction activities were calculated by dividing relative light units (“RLU”) in ligand treated cells with RLU in DMSO treated cells. Luminescence was detected at room temperature using a Dynex MLX microtiter plate luminometer.
Flanking both constructs are long terminal repeats, G418 and puromycin are selectable markers, CMV is the cytomegalovirus promoter, VBE is coding sequence for amino acids 26-546 from Bombyx mori EcR inserted downstream of the VP16 transactivation domain, 6×EcRE is six copies of the ecdysone response element, lacZ encodes for the reporter enzyme β-galactosidase.
(§1) Each assay was conducted in two separate wells, and the two values were averaged. Fold inductions were calculated by dividing relative light units (“RLU”) in ligand treated cells with RLU in DMSO treated cells. EC50s were calculated from dose response data using a three-parameter logistic model.

[2] = molecular target: GAL4 DBD-CfEcR(DEF)/VP16AD-MmRXRE (Choristoneura fumiferana, UniProt O77240); assay: 13B3 Assay (CHO stable cell line, luciferase reporter); conditions: for Fold Induction, 13B3 Assay, 33 uM: 33 uM ligand
From the text: GAL4 DBD-CfEcR(DEF)/VP16AD-MmRXRE:
The wild-type D, E, and F domains from spruce budworm Choristoneura fumiferana EcR (“CfEcR-DEF”; SEQ ID NO: 1) were fused to a GALA DNA binding domain (“Gal4DBD1-147”; SEQ ID NO: 2) and placed under the control of the SV40e promoter of pM vector (PT3119-5, Clontech, Palo Alto, Calif.). The D and E domains from Mus Musculus RXR (“MmRXR-DE”; SEQ ID NO: 11) were fused to the transactivation domain from VP16 (“VP16AD”; SEQ ID NO: 6) and placed under the control of the SV40e promoter of the pVP16 vector (PT3127-5, Clontech, Palo Alto, Calif.).
CHO cells were transiently transfected with transcription cassettes for GAL4 DBD-CJEcR(DEF) and for VP16AD-MmRXRE controlled by SV40e promoters. Stably transfected cells were selected using Hygromycin. Individually isolated CHO cell clones were transiently transfected with a GALA RE-luciferase reporter (pFR-Luc, Stratagene, La Jolla, Calif.). The 13B3 clone was selected using Zeocin.
(§2) Cells were trypsinized and diluted to a concentration of 2.5×10^4 cells mL. 100 μL of cell suspension was placed in each well of a 96 well plate and incubated at 37° C. under 5% CO2 for 24 h. Ligand stock solutions were prepared in DMSO and diluted 300 fold for all treatments. Dose response testing consisted of 8 concentrations ranging from 33 μM to 0.01 μM.
(§3) Luciferase reporter gene expression was measured 48 h after cell treatment using Bright-Glo™ Luciferase Assay System from Promega (E2650). Luminescence was detected at room temperature using a Dynex MLX microtiter plate luminometer.
as §1

[3] = molecular target: GAL4 DBD (1-147)-CfEcR(DEF)/VP16AD-βRXREF-LmUSPEF (Choristoneura fumiferana, UniProt O77240); assay: cell-based
From the text: GAL4 DBD (1-147)-CfEcR(DEF)/VP16AD-βRXREF-LmUSPEF:
The wild-type D, E, and F domains from spruce budworm Choristoneura fumiferana EcR (“CfEcR-DEF”; SEQ ID NO: 1) were fused to a GAL4 DNA binding domain (“Gal4DBD1-147”; SEQ ID NO: 2) and placed under the control of a phosphoglycerate kinase promoter (“PGK”; SEQ ID NO: 3). Helices 1 through 8 of the EF domains from Homo sapiens RXRβ (“HsRXRβ-EF”; nucleotides 1-465 of SEQ ID NO: 4) and helices 9 through 12 of the EF domains of Locusta migratoria Ultraspiracle Protein (“LmUSP-EF”; nucleotides 403-630 of SEQ ID NO: 5) were fused to the transactivation domain from VP16 (“VP16AD”; SEQ ID NO: 6) and placed under the control of an elongation factor-1α promoter (“EF-1α”; SEQ ID NO: 7). Five consensus GAL4 response element binding sites (“5XGAL4RE”; comprising 5 copies of a GAL4RE comprising SEQ ID NO: 8) were fused to a synthetic TATA minimal promoter (SEQ ID NO: 9) and placed upstream of the luciferase reporter gene (SEQ ID NO: 10).
CHO cells were transiently transfected with transcription cassettes for GAL4 DBD (1-147) CJEcR(DEF) and for VP16AD βRXREF-LmUSPEF controlled by ubiquitously active cellular promoters (PGK and EF-la, respectively) on a single plasmid. Stably transfected cells were selected by Zeocin resistance. Individually isolated CHO cell clones were transiently transfected with a GAL4 RE-luciferase reporter (pFR Luc). 27-63 clone was selected using Hygromycin.
as §2, with “[…]” for “33 μM”
as §3, §1

[4] = RLU ligand treated / RLU DMSO treated cells, average of two wells
[5] = 3.3 uM ligand, RLU ligand treated / RLU DMSO treated cells, average of two wells

| SMILES | Fold Induction, Z3 Assay, 3.3 uM [1] | Fold Induction, Z3 Assay, 33 uM [1] | Z3 assay Rel Max FI [1] | pEC50 [1] | Fold Induction, 13B3 Assay, 33 uM [2, 4] | Fold Induction, 13B3 Assay, 3.3 uM [2, 5] | 13B3 assay Rel Max FI ([2]; maximum fold induction at any concentration relative to that of GS-E ligand, CHO 13B3 cells) | pEC50 ([2]; read-out: 13B3 EC50, CHO 13B3 stable cell line, luciferase reporter, 48 h, average of two wells) | Fold Induction, 27-63 Assay, 3.3 uM [3, 5] | Fold Induction, 27-63 Assay, 33 uM ([3]; 33 uM ligand, RLU ligand treated / RLU DMSO treated cells, average of two wells) | 27-63 assay Rel Max FI ([3]; maximum fold induction at any concentration relative to that of GS-E ligand, CHO 27-63 cells) | pEC50 ([3]; read-out: 27-63 assay EC50, CHO 27-63 stable cell line, luciferase reporter, average of two wells) | fold induction at 33 µM ([2]; read-out: Fold Induction, 13B3 Assay, 33 uM) |
| --- | --- | --- | --- | --- | --- | --- | --- | --- | --- | --- | --- | --- | --- |
| Cc1cc(C)cc(C(=O)N(NC(=O)c2ccc3c(c2)OC(C)CO3)C(C)(C)C)c1 (racemic) [RG-101509] | 1303 | 328 | 0.882 | 5.93 | 1144 |  |  |  |  |  |  |  |  |
| CCCCC(CC)N(NC(=O)c1cccc(C)c1C)C(=O)c1ccccc1 (racemic) [RG-103361] | 171 | 244 | 0.938 | 6.28 | 2262 | 504 | 0.758 | 4.55 |  |  |  |  |  |
| COc1cccc(C(=O)NN(C(=O)c2cc(Cl)nc(Cl)c2)C(C)(C)C)c1C [RG-100394] | 1339 | 11 |  | 5.91 | 178 |  |  |  |  |  |  |  |  |
| COc1cc(F)ccc1C(=O)N(NC(=O)c1cccc(OC)c1C)C(C)(C)C [RG-100524] | 991 | 146 | 1.002 | 6.58 | 1211 |  |  |  |  |  |  |  |  |
| CCc1c(C(=O)NN(C(=O)c2ccc(F)cc2)C(C)(C)C)ccc2c1OCOC2 [RG-100574] |  | 389 |  | 5.95 |  |  |  |  | 151 | 21 | 0.371 | 5.40 |  |
| COc1cccc(C(=O)NN(C(=O)c2cc(F)ccc2F)C(C)(C)C)c1C [RG-100603] |  | 453 |  |  | 570 |  |  |  |  |  |  |  |  |
| CC(C)(C)N(NC(=O)c1c(F)ccc(F)c1F)C(=O)c1ccc(F)cc1Cl [RG-100620] | 710 | 428 | 0.869 | 5.62 | 13982 |  |  |  |  |  |  |  |  |
| CCc1c(OC)cccc1C(=O)NN(C(=O)c1cc(C)nc(Cl)c1)C(C)(C)C [RG-100667] | 1480 | 238 | 0.890 | 6.46 | 1191 |  |  |  |  |  |  |  |  |
| CCc1c(C(=O)NN(C(=O)c2ccccc2OC)C(C)(C)C)ccc2c1OCO2 [RG-100698] | 1089 | 591 | 1.025 | 6.00 | 434 |  |  |  |  |  |  |  |  |
| CC(=O)Oc1cccc(C(=O)NN(C(=O)c2cc(C)cc(C)c2)C(C)(C)C)c1C [RG-100749] | 874 | 145 | 0.951 | 5.57 | 288 |  |  |  |  |  |  |  |  |
| COc1cc(OC)cc(C(=O)N(NC(=O)c2cccc(C)c2C)C(C)(C)C)c1 [RG-100764] | 915 | 369 | 0.900 | 5.63 | 3814 |  |  |  |  |  |  |  |  |
| CCc1c(OC)cccc1C(=O)NN(C(=O)c1ccc2ncn(C(c3ccccc3)(c3ccccc3)c3ccccc3)c2c1)C(C)(C)C [RG-115718, 3-trityl-3H-benzoimidazole-5-carboxylic acid N-tert-butyl-N′-(2-ethyl-3-methoxy-benzoyl)-hydrazide] |  |  |  |  |  |  |  |  |  |  |  |  | 2 |
